Values of other authors, collected in US6617125B2, “Compositions for enhanced catalyzed reporter deposition” (PerkinElmer Life Sciences, Inc., priority 2001, dated 2003).

Assays:
HRP [1] = conditions: substrate guaiacol; Whitaker and Tappel 1962
HRP [2] = target: T1, HRP (Armoracia rusticana, UniProt P00433)
T1 sequence (P00433 31-338 limits assumed): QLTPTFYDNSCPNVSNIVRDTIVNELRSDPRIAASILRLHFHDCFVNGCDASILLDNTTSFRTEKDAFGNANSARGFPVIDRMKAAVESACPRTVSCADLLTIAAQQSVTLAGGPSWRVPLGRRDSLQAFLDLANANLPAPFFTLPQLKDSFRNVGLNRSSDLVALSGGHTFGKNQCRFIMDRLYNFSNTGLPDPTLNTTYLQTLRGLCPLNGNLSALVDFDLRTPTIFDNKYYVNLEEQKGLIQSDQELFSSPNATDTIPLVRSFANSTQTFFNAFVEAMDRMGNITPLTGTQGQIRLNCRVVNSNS

SMILES	enhancement of the oxidation of guaiacol (HRP [1])	effect on the oxidation of 4-chloro-1-naphthol (HRP [2]; substrate 4-chloro-1-naphthol, de Jong et al. 1985)	enhancement of the oxidation of p-phenylenediamine-pyrocatechol (HRP [2]; substrate combination p-phenylenediamine-pyrocatechol, de Jong et al. 1985)	enhancement of the oxidation of diaminobenzidine (HRP [2]; substrate diaminobenzidine, de Jong et al. 1985)	effect on substrates which form covalently depositable products (HRP [2]; substrates which form covalently depositable products)
[Cl-].[K+] [KCl]	enhance				
O=S(=O)([O-])[O-].[Na+].[Na+] [Na2SO4]	enhance				
[Cl-].[Na+] [NaCl]	enhance				
c1c[nH]cn1 [imidazole]		no effect	two	approximately four	no effect
